In patent publication US9029337B2, “Modulation of factor 7 expression” (Isis Pharmaceuticals, Inc., priority 2007, dated 2015):
Strand notation (5' to 3'): a small letter for the sugar, then the base; units joined by * are phosphorothioate-linked, units joined directly phosphodiester-linked; [ ] holds rarer units or linkages, { } end groups; capitals alone tell only the bases. e = 2'-O-(2-methoxyethyl) (MOE); [5mC] = 5-methylcytosine; d = 2'-deoxy (DNA)

What was measured:
human Factor 7 mRNA [1] = experiment: Antisense inhibition of human Factor 7 mRNA in HepB3 cells, 50 nM antisense oligonucleotide, lipofectin; type: cell-based; details: for % Inhibition: lipofectin, approximately 24 hours; for % Inhibition of human Factor 7 mRNA levels: gapmers targeted to nucleobases 4868 to 4899 of SEQ ID NO: 1, Table 8
Procedure, shortened: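 Seeding density was 4,000 cells per well. Following roughly 24 hours of oligonucleotide treatment, RNA was extracted and Factor 7 message quantified using the RTS 2927 primer probe set. Levels were corrected for RIBOGREEN® total RNA and expressed against untreated controls.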

human Factor 7 mRNA [2] = experiment: Dose-dependent antisense inhibition of human Factor 7 in HepB3 cells, lipofectin; type: cell-based; details: for percent inhibition of Factor 7: approximately 16 hours; for percent inhibition of Factor 7 mRNA, relative to untreated control cells: HepB3 cells, approx. 16 hours (Table 14)
Method: Cells were plated at a density of 4,000 cells per well and treated with lipofectin reagent with 3.125 nM, 6.25 nM, 12.5 nM, 25 nM, 50 nM, and 100 nM concentrations of antisense oligonucleotide, as indicated in Table 3. After a treatment period of approximately 16 hours, RNA was isolated from the cells and Factor 7 mRNA levels were measured by real-time RT-PCR, as described herein. Human Factor 7 primer probe set RTS 2927 (forward sequence: […], incorporated herein as SEQ ID NO: 164; reverse sequence: […], incorporated herein as SEQ ID NO: 165; probe sequence: TGGGTGGTCTCCGCGGCCX, incorporated herein as SEQ ID NO: 166) was used to measure mRNA levels. Factor 7 mRNA levels were adjusted according to total RNA content as measured by RIBOGREEN®. Results are presented as percent inhibition of Factor 7, relative to untreated control cells.
Cells were plated at a density of 4,000 cells per well and transfected using lipofectin reagent with 6.25 nM, 12.5 nM, 25.0 nM, 50.0 nM, and 100.0 nM concentrations of antisense oligonucleotide, as indicated in Table 7. After a treatment period of approximately 16 hours, RNA was isolated from the cells and Factor 7 mRNA levels were measured by real-time RT-PCR, as described herein. Human Factor 7 primer probe set RTS 2927 was used to measure mRNA levels. Factor 7 mRNA levels were adjusted according to total RNA content as measured by RIBOGREEN®. Results are presented as percent inhibition of Factor 7, relative to untreated control cells.
Cells were plated at a density of 4,000 cells per well and transfected using lipofectin reagent with 3.125 nM, 6.25 nM, 12.5 nM, 25 nM, 50 nM, and 100 nM concentrations of antisense oligonucleotide, as specified in Table 14. After a treatment period of approximately 16 hours, RNA was isolated from the cells and Factor 7 mRNA levels were measured by quantitative real-time PCR. Human Factor 7 primer probe set RTS 2927 was used to measure mRNA levels. Factor 7 mRNA levels were adjusted according to total RNA content, as measured by RIBOGREEN®. Results are presented as percent inhibition of Factor 7, relative to untreated control cells.

[3] = Table 1, 50 nM, relative to untreated control cells
[4] = 50 nM antisense oligonucleotide, Factor 7 mRNA by real-time RT-PCR (RTS 2927), relative to untreated control
[5] = oligonucleotides targeted to nucleobases 14707 to 14732 of SEQ ID NO: 1 (Table 11)
[6] = oligonucleotides targeted to nucleobases 11830 to 11869 of SEQ ID NO: 1 (Table 9)

407641 (antisense e[5mC]*e[5mC]*eT*eG*eA*dG*dG*d[5mC]*d[5mC]*dA*dG*d[5mC]*dA*dG*dA*eT*e[5mC]*eA*e[5mC]*eG) [compound 407641]
% Inhibition (human Factor 7 mRNA [1]; [3]): 94% | % Inhibition (human Factor 7 mRNA [1]; [4]): 73% | % Inhibition (human Factor 7 mRNA levels) (human Factor 7 mRNA [1]; [5]): 68% | percent inhibition of Factor 7 (human Factor 7 mRNA [2]; Table 3, 3.125 nM): 53% | percent inhibition of Factor 7 (human Factor 7 mRNA [2]; Table 3, 6.25 nM): 53% | percent inhibition of Factor 7 (human Factor 7 mRNA [2]; Table 3, 12.5 nM): 71% | percent inhibition of Factor 7 (human Factor 7 mRNA [2]; Table 3, 25.0 nM): 84% | percent inhibition of Factor 7 (human Factor 7 mRNA [2]; Table 3, 50.0 nM): 88% | percent inhibition of Factor 7 (human Factor 7 mRNA [2]; Table 3, 100.0 nM): 89%

407643 (antisense e[5mC]*eA*e[5mC]*eA*e[5mC]*dA*dT*dG*dG*dA*dG*dT*d[5mC]*dA*dG*e[5mC]*eA*eT*e[5mC]*eG) [compound 407643]
% Inhibition (human Factor 7 mRNA [1]; [3]): 84% | % Inhibition (human Factor 7 mRNA [1]; [4]): 80% | % Inhibition (human Factor 7 mRNA levels) (human Factor 7 mRNA [1]; oligonucleotides targeted to nucleobases 15098 to 15122 of SEQ ID NO: 1 (Table 12)): 69% | percent inhibition of Factor 7 (human Factor 7 mRNA [2]; Table 3, 3.125 nM): 16% | percent inhibition of Factor 7 (human Factor 7 mRNA [2]; Table 3, 6.25 nM): 59% | percent inhibition of Factor 7 (human Factor 7 mRNA [2]; Table 3, 12.5 nM): 68% | percent inhibition of Factor 7 (human Factor 7 mRNA [2]; Table 3, 25.0 nM): 76% | percent inhibition of Factor 7 (human Factor 7 mRNA [2]; Table 3, 50.0 nM): 92% | percent inhibition of Factor 7 (human Factor 7 mRNA [2]; Table 3, 100.0 nM): 95% | percent inhibition of Factor 7 (human Factor 7 mRNA [2]; Table 7, 6.25 nM): 36% | percent inhibition of Factor 7 (human Factor 7 mRNA [2]; Table 7, 12.5 nM): 49% | percent inhibition of Factor 7 (human Factor 7 mRNA [2]; Table 7, 25.0 nM): 70% | percent inhibition of Factor 7 (human Factor 7 mRNA [2]; Table 7, 50.0 nM): 83% | percent inhibition of Factor 7 (human Factor 7 mRNA [2]; Table 7, 100.0 nM): 93%

422294 (antisense eG*eA*dG*dT*dT*d[5mC]*dT*dG*d[5mC]*dA*dG*dG*dA*dG*d[5mC]*eG*eG*e[5mC]*e[5mC]*eT) [compound 422294]
% Inhibition of human Factor 7 mRNA levels (human Factor 7 mRNA [1]): 78% | percent inhibition of Factor 7 mRNA, relative to untreated control cells (human Factor 7 mRNA [2]; 3.125 nM): 9% | percent inhibition of Factor 7 mRNA, relative to untreated control cells (human Factor 7 mRNA [2]; 12.5 nM): 32% | percent inhibition of Factor 7 mRNA, relative to untreated control cells (human Factor 7 mRNA [2]; 25 nM): 61% | percent inhibition of Factor 7 mRNA, relative to untreated control cells (human Factor 7 mRNA [2]; 50 nM): 77% | percent inhibition of Factor 7 mRNA, relative to untreated control cells (human Factor 7 mRNA [2]; 100 nM): 84% | percent inhibition of Factor 7 mRNA, relative to untreated control cells (human Factor 7 mRNA [2]): 21%

422246 (antisense e[5mC]*eT*dG*dA*dG*dG*dA*dG*dA*d[5mC]*dA*dA*dT*dG*dG*eT*e[5mC]*eA*eG*eG) [compound 422246]
% Inhibition (human Factor 7 mRNA levels) (human Factor 7 mRNA [1]; [6]): 46%

407963 (antisense eA*eG*eA*eG*e[5mC]*dA*dG*dG*dG*dT*dG*d[5mC]*d[5mC]*dT*dT*eG*eG*eA*eA*eG) [compound 407963]
% Inhibition (human Factor 7 mRNA [1]; [3]): 33%

416426 (antisense eA*eG*e[5mC]*e[5mC]*e[5mC]*dA*dA*dG*d[5mC]*dA*dG*dA*dA*dG*dG*e[5mC]*eA*eG*eA*eG) [compound 416426]
% Inhibition (human Factor 7 mRNA [1]; [4]): 34%

407644 (antisense eG*eA*eG*eG*eA*d[5mC]*dA*dG*d[5mC]*dA*d[5mC]*dA*d[5mC]*dA*dT*eG*eG*eA*eG*eT) [compound 407644]
% Inhibition (human Factor 7 mRNA [1]; [3]): 66%

422155 (antisense eG*eT*e[5mC]*dA*dG*dG*dG*d[5mC]*dT*dG*dG*dT*dT*dT*dT*dG*dG*eA*eG*eG) [compound 422155]
% Inhibition (human Factor 7 mRNA levels) (human Factor 7 mRNA [1]; [6]): 34%

422115 (antisense eG*e[5mC]*eG*e[5mC]*e[5mC]*dA*d[5mC]*d[5mC]*d[5mC]*dG*d[5mC]*d[5mC]*dG*dG*d[5mC]*eT*e[5mC]*eT*eG*e[5mC]) [compound 422115]
% Inhibition (human Factor 7 mRNA levels) (human Factor 7 mRNA [1]; oligonucleotides targeted to nucleobases 13760 to 13789 of SEQ ID NO: 1 (Table 10)): 66%

422153 (antisense e[5mC]*eA*eT*dG*d[5mC]*dA*dT*dG*dG*dT*dG*dA*dT*dG*d[5mC]*dT*dT*e[5mC]*eT*eG) [compound 422153]
% Inhibition (human Factor 7 mRNA [1]; Table 13 (microwalk), 50 nM): 67%

422272 (antisense eA*e[5mC]*dT*dG*dA*dG*d[5mC]*dG*d[5mC]*dG*dG*dA*dA*dG*dA*eA*eG*eG*eG*eA) [compound 422272]
% Inhibition (human Factor 7 mRNA [1]; Table 6, 50 nM): 12%

416548 (antisense eA*eG*eG*eT*eG*dA*dA*dT*dG*dA*dA*dA*dT*dT*d[5mC]*eT*eA*e[5mC]*e[5mC]*eT) [compound 416548]
% Inhibition (human Factor 7 mRNA [1]; [4]): 29%

407932 (antisense eG*eA*eA*e[5mC]*e[5mC]*dA*dG*dA*dA*dA*dA*dG*dT*dG*dA*eG*eA*eG*e[5mC]*eT) [compound 407932]
% Inhibition (human Factor 7 mRNA [1]; [3]): 55%

416516 (antisense eG*eT*eG*eA*eG*dA*dA*dT*dA*d[5mC]*dA*dA*d[5mC]*dA*dG*eA*eT*eG*eA*eG) [compound 416516]
% Inhibition (human Factor 7 mRNA [1]; [4]): 24%

422147 (antisense eG*eA*eG*e[5mC]*e[5mC]*d[5mC]*dG*dA*dG*dT*dT*d[5mC]*dT*dG*d[5mC]*eA*eG*eG*eA*eG) [compound 422147]
% Inhibition of human Factor 7 mRNA levels (human Factor 7 mRNA [1]): 64%

422241 (antisense eG*eA*dG*dA*d[5mC]*dA*dA*dT*dG*dG*dT*d[5mC]*dA*dG*dG*eG*e[5mC]*eT*eG*eG) [compound 422241]
% Inhibition (human Factor 7 mRNA levels) (human Factor 7 mRNA [1]; [6]): 61%

422119 (antisense eG*e[5mC]*eG*eG*eA*dA*dG*dA*dA*dG*dG*dG*dA*d[5mC]*dG*eG*eA*eA*eG*eG) [compound 422119]
% Inhibition (human Factor 7 mRNA [1]; Table 6, 50 nM): 39%

407657 (antisense eG*eG*eG*eA*e[5mC]*dT*d[5mC]*dA*dG*d[5mC]*dA*dA*dG*dA*dG*eT*eG*e[5mC]*eA*eG) [compound 407657]
% Inhibition (human Factor 7 mRNA [1]; [3]): 26%

407656 (antisense e[5mC]*eA*eG*e[5mC]*eA*dA*dG*dA*dG*dT*dG*d[5mC]*dA*dG*d[5mC]*eT*eT*eG*e[5mC]*e[5mC]) [compound 407656]
% Inhibition (human Factor 7 mRNA [1]; [3]): 43%

416534 (antisense eA*eT*eG*e[5mC]*eA*d[5mC]*dA*d[5mC]*d[5mC]*dA*dG*dG*dG*d[5mC]*dT*eG*e[5mC]*eT*eG*eG) [compound 416534]
% Inhibition (human Factor 7 mRNA [1]; [4]): 32%

422133 (antisense eA*eG*e[5mC]*eA*eG*d[5mC]*d[5mC]*dT*dG*dA*dG*dG*d[5mC]*d[5mC]*dA*eG*e[5mC]*eA*eG*eA) [compound 422133]
% Inhibition (human Factor 7 mRNA levels) (human Factor 7 mRNA [1]; [5]): 65%

422227 (antisense eG*e[5mC]*dA*dT*dG*dG*dT*dG*dA*dT*dG*d[5mC]*dT*dT*d[5mC]*eT*eG*eA*eA*eT) [compound 422227]
% Inhibition (human Factor 7 mRNA [1]; Table 13 (microwalk), 50 nM): 67%

416519 (antisense eA*eA*eA*eT*eA*dT*dG*dG*dG*dA*d[5mC]*d[5mC]*d[5mC]*dA*dA*eA*eG*eT*eG*eG) [compound 416519]
% Inhibition (human Factor 7 mRNA [1]; [4]): 9%

407658 (antisense eG*e[5mC]*eT*eT*eG*d[5mC]*d[5mC]*dG*dG*dA*dG*dT*d[5mC]*dT*dG*eA*eG*eT*eG*eG) [compound 407658]
% Inhibition (human Factor 7 mRNA [1]; [3]): 16%

422249 (antisense eT*eG*dG*d[5mC]*dT*dG*dA*dG*dG*dA*dG*dA*d[5mC]*dA*dA*eT*eG*eG*eT*e[5mC]) [compound 422249]
% Inhibition (human Factor 7 mRNA levels) (human Factor 7 mRNA [1]; [6]): 52%

416523 (antisense eT*e[5mC]*eT*e[5mC]*eG*dA*dG*dG*dG*d[5mC]*dT*dG*dA*dG*dA*eA*eT*eT*eG*e[5mC]) [compound 416523]
% Inhibition (human Factor 7 mRNA [1]; [4]): 18%

422172 (antisense eT*eG*eG*d[5mC]*dT*dG*dA*dG*dG*dA*dG*dA*d[5mC]*dA*dA*dT*dG*eG*eT*e[5mC]) [compound 422172]
% Inhibition (human Factor 7 mRNA levels) (human Factor 7 mRNA [1]; [6]): 39%

416463 (antisense eT*eG*e[5mC]*eT*eG*d[5mC]*dA*dG*dG*d[5mC]*dA*dG*dT*d[5mC]*d[5mC]*eT*eG*eG*eG*eT) [compound 416463]
% Inhibition (human Factor 7 mRNA [1]; [4]): 39%

407931 (antisense e[5mC]*eT*eT*e[5mC]*eA*dG*dA*dG*dG*dA*d[5mC]*dA*dG*d[5mC]*dA*e[5mC]*eA*e[5mC]*eA*eT) [compound 407931]
% Inhibition (human Factor 7 mRNA [1]; [3]): 56%

407618 (antisense eG*eT*eA*eT*eT*dT*dT*dT*d[5mC]*d[5mC]*dA*d[5mC]*dA*dT*dG*eG*eA*eT*eA*eT) [compound 407618]
% Inhibition (human Factor 7 mRNA [1]; [3]): 42%
